The structures appear in SMILES notation.

The values below come from patent US20230391775A1, “SUBSTITUTED DIARYLAMINE COMPOUND, PHARMACEUTICAL COMPOSITION THEREOF, PREPARATION METHOD THEREFOR, AND USE THEREOF” (SUZHOU YABAO PHARMACEUTICAL R&D CO., LTD., priority 2020, published 2023).

A short description of data set [1]: Drug tissue distribution assay: plasma pharmacokinetics. The data set is classed as in vivo. To be noted: mice, single oral intragastric 30 mg/kg. Here is the method:
(§1) Test sample: compound 4, purity 99%
(§2) Preparation of test sample: 22.73 mg of compound 4 was weighed and placed in a mortar (according to the purity of 99%), and a small amount of 0.5% CMC-Na was added followed by full grinding. The mixture was then transferred to a container; the mortar was washed for 4 times; the washing solution was transferred to the container, followed by the addition of 0.5% CMC-Na until the volume of the reaction solution was 30 mL; and then a test sample suspension with a concentration of […] was prepared. The suspension was stirred with a magnetic stirrer at a rotation speed of 1200 rpm for at least 15 min prior to sampling for analysis and administration, with fresh preparation just prior to use.
(§3) Route of administration: oral intragastric administration
(§4) Frequency and dose of administration: single administration at 30 mg/kg (40 mL/kg)
(§5) After drug administration, 0.4 mL of blood was collected from the heart of each group of animals at corresponding time points of 0.25 h, 0.5 h, 1 h, 2 h, 4 h, 6 h, 8 h, and 24 h, respectively, the animals were anesthetized by intraperitoneal injection of 50 mg/kg Zoletil, and then put to death by bleeding. The brain, lung, and kidney of each animal were taken out, washed with normal saline, dried off with filter paper, and put into a cryopreservation tube. The cryopreservation tube was temporarily placed in dry ice, and stored at −60° C. or below for 12 h.
(§6) The collected blood was anticoagulated with EDTA-K2, then temporarily placed in wet ice, and then centrifuged for 10 min at 4° C. and at 2600 g within 2 h. The plasma was temporarily placed in dry ice, and stored in a refrigerator at −60° C. or below within 14 h.
(§7) Analytical method: The drug concentrations in plasma and brain tissue were measured by the following LC-MS/MS method. • Instrument: Shimadzu LC-MS/MS (Model: LCMS-8060); • Chromatographic column: GL Sciences Inc., InertSustain, C18, 3 μm, 2.1×50 mm; • Ion detection: positive ion mode, m/z 453.10/338.05; • Mobile phase A: aqueous solution containing 0.1% TFA; mobile phase B: methanol solution containing 0.1% TFA;
(§8) Pharmacokinetic parameter evaluation index: pharmacokinetic parameters were calculated in a non-compartmental model using WinNonlin 6.4.

A short description of data set [2]: Drug tissue distribution assay: brain tissue pharmacokinetics / blood-brain barrier permeability. The class given is in vivo. The settings on record: mice, single oral intragastric 30 mg/kg. Here is the method: as §1, §2, §3, §4, §5, §6, §7, §8
The target of data set [3] is LRRK2 G2019S (Homo sapiens (Human), UniProt Q5S007, G2019S). As to the kind of experiment: Adapta kinase assay (LRRK2_IC50 assay). The class given is biochemical. To be noted: Adapta TR-FRET, 1 h, room temperature. Here is the method:
In the Adapta™ kinase assay method (LRRK2_IC50 assay): the kinase reaction buffer contained kinase buffer S (Life Technologies, PV5213) and 2 mM DTT (Life Technologies, P2325). The kinases LRRK2 G2019S protein (PV4881) and ERM (LRRKtide, PV5093) were derived from Life Technologies. The Adapta™ universal kinase assay kit (Life Technologies, PV5099) contained the following components: Adapta™ Eu-anti-ADP antibody (PV5097; 4 μg); 10 μM AlexaFluor®647 ADP tracer (PV5098; 200 pmol); TR-FRET dilution buffer (PV3574; 100 mL); kinase quench buffer (P2825; 1 mL); 10 mM ATP (PV3227; 500 μL); and 10 mM ADP (PV5096; 500 μL). LRRK2-IN-1 (1234480-84-2, HY-10875) was derived from MedChem Express.
Adapta™ Kinase Assay Method
Adapta® universal kinase assay method is a uniform fluorescence-based immunoassay for detecting ADP. In contrast to ATP consumption assay, Adapta® assay method was very sensitive to ADP formation, with most signal changes occurring when initially 10-20% ATP was converted to ADP. This made Adapta® universal kinase assay method very suitable for low-activity kinases.
All assays were performed at room temperature (about 21° C.) and were linearly related to time and enzyme concentration under the conditions used. 1× kinase reaction buffer was prepared from 5× kinase buffer S stock solution (listed above), and 10 mL of 1× kinase reaction buffer was prepared by the addition of 2 mL of 5× stock solution to 8 mL of H2O. To the 1× kinase reaction buffer was added 20 μL of 1 M DTT.
A kinase reaction was performed in a low-volume 384-well plate in a volume of 10 μL. Typically, a Greiner plate was used (Catalog #3674 #, low volume, white wall, 784075). Other untreated assay plates that were not tested could also be suitable. The substrate concentration in the assay was 100 μM, and the 1× kinase reaction buffer consisted of 50 mM Tris-HCl (pH 8.5), 10 mM MgCl2, 1 mM EGTA, 0.01% Brij-35 and 2 mM DTT, as well as any other additives that could be necessary for the particular kinase. The kinase reaction was allowed to proceed for 1 h at room temperature, followed by the addition of a formulation of kinase quenching buffer (EDTA; 30 mM), Eu-labeled antibody (6 nM), and tracer (18.9 nM) in TR-FRET dilution buffer (5 μL). The final concentration of the antibody in the assay wells was 2 nM, the final concentration of the tracer was 6.3 nM, and the final concentration of EDTA was 10 mM. The plate was allowed to equilibrate at room temperature for at least 30 min and then read on a plate reader configured for Adapta™ TR-FRET.
The data provided in this document were generated by using BMG LABTECH PHERAstar plate reader and using appropriate filters and instrument settings for Adapta™. Test compounds were screened in wells with 1% DMSO (final). For 8-point titration, a 5-fold serial dilution was made on the basis of a starting concentration.
In general terms: Time-resolved FRET reads energy transfer from a long-lived donor to a nearby acceptor.

Sequence of LRRK2 G2019S (Q5S007 whole entry G2019S): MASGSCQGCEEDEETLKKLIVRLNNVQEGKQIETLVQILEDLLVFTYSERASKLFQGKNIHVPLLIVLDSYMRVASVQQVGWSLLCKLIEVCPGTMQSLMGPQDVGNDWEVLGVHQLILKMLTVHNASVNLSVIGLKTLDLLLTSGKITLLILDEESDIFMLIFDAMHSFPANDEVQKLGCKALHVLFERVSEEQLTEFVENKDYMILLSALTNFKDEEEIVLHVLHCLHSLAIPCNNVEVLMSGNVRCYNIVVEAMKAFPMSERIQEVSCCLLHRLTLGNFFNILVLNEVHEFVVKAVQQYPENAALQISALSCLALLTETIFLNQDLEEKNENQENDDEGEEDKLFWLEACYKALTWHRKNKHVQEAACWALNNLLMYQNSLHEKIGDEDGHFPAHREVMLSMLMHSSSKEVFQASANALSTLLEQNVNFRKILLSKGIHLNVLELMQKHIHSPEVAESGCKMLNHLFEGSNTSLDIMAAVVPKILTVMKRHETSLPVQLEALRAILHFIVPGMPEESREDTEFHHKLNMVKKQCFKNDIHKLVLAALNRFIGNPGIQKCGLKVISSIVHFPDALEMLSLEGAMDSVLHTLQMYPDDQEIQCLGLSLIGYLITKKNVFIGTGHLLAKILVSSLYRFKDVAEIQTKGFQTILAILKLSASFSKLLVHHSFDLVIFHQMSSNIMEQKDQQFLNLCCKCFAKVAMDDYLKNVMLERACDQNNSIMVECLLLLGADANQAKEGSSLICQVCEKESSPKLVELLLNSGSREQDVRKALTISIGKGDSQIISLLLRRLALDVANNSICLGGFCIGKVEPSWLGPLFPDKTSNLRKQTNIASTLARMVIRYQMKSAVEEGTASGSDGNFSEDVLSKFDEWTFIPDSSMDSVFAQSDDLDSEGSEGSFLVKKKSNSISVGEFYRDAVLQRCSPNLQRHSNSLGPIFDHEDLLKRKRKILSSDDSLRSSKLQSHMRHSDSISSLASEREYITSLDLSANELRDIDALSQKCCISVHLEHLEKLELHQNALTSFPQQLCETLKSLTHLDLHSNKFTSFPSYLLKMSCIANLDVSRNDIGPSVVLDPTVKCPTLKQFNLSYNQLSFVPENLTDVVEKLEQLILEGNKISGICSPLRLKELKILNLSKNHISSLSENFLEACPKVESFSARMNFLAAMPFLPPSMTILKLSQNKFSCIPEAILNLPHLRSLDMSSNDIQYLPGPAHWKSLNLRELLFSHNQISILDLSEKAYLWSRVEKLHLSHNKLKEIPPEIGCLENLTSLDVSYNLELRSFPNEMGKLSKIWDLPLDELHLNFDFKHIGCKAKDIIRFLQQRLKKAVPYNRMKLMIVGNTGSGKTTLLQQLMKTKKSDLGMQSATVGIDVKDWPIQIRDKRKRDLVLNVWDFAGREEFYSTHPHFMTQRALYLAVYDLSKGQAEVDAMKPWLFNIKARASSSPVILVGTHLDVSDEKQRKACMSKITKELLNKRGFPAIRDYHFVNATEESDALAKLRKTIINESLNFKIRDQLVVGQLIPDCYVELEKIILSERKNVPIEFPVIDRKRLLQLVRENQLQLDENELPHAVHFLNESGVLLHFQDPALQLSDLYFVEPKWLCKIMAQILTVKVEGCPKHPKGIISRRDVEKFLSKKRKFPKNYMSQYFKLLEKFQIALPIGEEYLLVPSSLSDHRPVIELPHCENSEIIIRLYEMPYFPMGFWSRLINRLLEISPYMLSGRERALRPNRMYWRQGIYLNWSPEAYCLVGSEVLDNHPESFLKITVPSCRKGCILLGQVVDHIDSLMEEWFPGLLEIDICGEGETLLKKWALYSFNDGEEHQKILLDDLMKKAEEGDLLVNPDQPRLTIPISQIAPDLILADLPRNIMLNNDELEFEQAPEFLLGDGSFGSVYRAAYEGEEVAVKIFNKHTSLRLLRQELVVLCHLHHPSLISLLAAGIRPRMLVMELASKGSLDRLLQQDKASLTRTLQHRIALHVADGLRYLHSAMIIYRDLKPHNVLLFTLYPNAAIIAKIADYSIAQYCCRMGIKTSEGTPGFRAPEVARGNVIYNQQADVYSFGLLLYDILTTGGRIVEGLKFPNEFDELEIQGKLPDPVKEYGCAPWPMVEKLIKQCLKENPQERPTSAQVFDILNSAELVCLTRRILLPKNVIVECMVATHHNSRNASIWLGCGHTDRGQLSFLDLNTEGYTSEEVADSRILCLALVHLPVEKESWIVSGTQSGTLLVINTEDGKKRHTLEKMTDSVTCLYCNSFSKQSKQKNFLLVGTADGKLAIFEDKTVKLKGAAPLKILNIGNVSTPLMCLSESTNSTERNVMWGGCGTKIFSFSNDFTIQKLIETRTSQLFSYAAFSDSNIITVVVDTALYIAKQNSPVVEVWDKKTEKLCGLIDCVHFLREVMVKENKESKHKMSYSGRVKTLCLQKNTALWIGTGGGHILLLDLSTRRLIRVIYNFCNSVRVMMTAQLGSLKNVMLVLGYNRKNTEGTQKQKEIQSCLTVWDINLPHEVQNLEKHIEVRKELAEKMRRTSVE

As usually defined, the CL/F is the apparent clearance, not corrected for the fraction that reaches the circulation. Usually Tmax stands for the time from dosing to the highest level. Usually half-life stands for the time in which the quantity being followed falls by half. Low readings indicate rapid decline, high ones slow decline. As usually defined, the IC50 is the concentration at which inhibition is half-maximal. Low readings indicate greater potency in that assay, high ones weaker potency in that assay. As for `CCOc1nc(Nc2ccc(C(N3CCOCC3)C(F)(F)F)cc2OC)nc2[nH]ccc12` (single isomer, unassigned) [Compound 4, 4-ethoxy-N-(2-methoxy-4-(2,2,2-trifluoro-1-morpholinoethyl)phenyl)-7H-pyrrolo[2,3-d]pyrimidin-2-amine], in data set [1], the AUC0-t is listed as 3248 ng · h · mL^−l, the “AUC0-∞” value amounted to 3257 ng · h · mL^−l, the Cmax was determined as 597 ng · mL^−l and the Kel turned out to be 0.247 h^−l. For the same compound, in data set [1] (mouse), the CL/F was 154 mL/min/kg, the Tmax came to 1 h and the half-life was 2.8 h. Besides, in data set [1] (mouse, read-out: MRT0-t), the MRT last amounted to 4.5 h. Also, the MRT inf in data set [1] (mouse, read-out: MRT0-∞) is 4.56 h. The Vd/F in data set [1] (mouse, read-out: Vz/F) amounted to 37.3 L/kg. In data set [2] (brain tissue), the AUC0-t was found to be 6457 ng · h · g^−l, the “AUC0-∞” value is reported as 7409 ng · h · g^−l and the Cmax is given as 1898 ng · g^−l. For the same compound, the blood-brain barrier permeability entry in data set [2] (result in words) was “excellent blood-brain barrier permeability”. The Kp in data set [2] (mouse, brain / plasma, read-out: AUCbrain/AUCplasma) was about 2. In addition, in data set [2] (mouse, brain tissue), the Tmax came to 1 h. Further, the IC50 in data set [3] was found to be 0.017 µM.
